This is an account of results in patent US20230322715A1, “BROAD SPECTRUM ANTI-CANCER COMPOUNDS” (The Regents of the University of California, priority 2019, published 2023).

For orientation: IC50 means the concentration needed to halve the response being measured.

Entries after “also recorded” stand apart in the source; their conditions may differ. Where two headings read alike, the source gives them in different places.

Data set [1] relates to m6A mRNA levels in TS576 cells. The data set is described as follows: m6A dot blot assay on poly(A)+ mRNA. The class given is cell-based, human. To be noted: TS576 poly(A)+ mRNA, 2, 10, 50 ng, vs DMSO or shControl. On the procedure:
Next, we sought to determine if FTO-04 was able to alter m6A levels in purified mRNA from GSCs by m6A dot blot assay. TS576 cells were treated with 2, 10, and 50 ng shControl or shFTO to establish the relative change in m6A mRNA levels due to FTO knockdown. […] TS576 cells were then treated with 2, 10, and 50 ng of either DMSO or FTO-04 (FIG. 4-33B).
Polyadenylated mRNA were isolated from TS576 cells treated with either DMSO, FTO-04 (30 μM), and control (shControl) or FTO lentivirus (shFTO) knockdown samples by using Magnetic mRNA Isolation Kit (New England Biolabs, S1550S). Isolated mRNA was quantified, serially diluted and denatured at 95° C. for 3 min, then chilled on ice to prevent reformation of secondary structure of mRNA. Denatured mRNA samples were spotted on an Amersham Hybond-N^+ membrane (GE Healthcare, RPN3050B) and cross-linked to the membrane with UV radiation. After crosslinking the membrane was washed with phosphate buffer saline with 0.1% tween-20 (PBST) and blocked in 5% of non-fat milk in PBST buffer, and then incubated with anti-m^6 A antibody (1:1000; abcam) overnight at 4° C. The membrane was then washed as before and incubated in HRP-conjugated secondary antibodies for 1 h at room temperature. The membrane was then developed with Thermo ECL SuperSignal West Femto Maximum Sensitivity Substrate (Thermo Fisher Scientific).

The target in data set [2] is T1, FTO (Homo sapiens (Human), UniProt Q9C0B1). The data set is described as follows: ELISA-based FTO inhibition assay (orthogonal control). The class given is biochemical. To be noted: biotinylated m6A-RNA, 0-40 μM inhibitor; read-out: IC50 against FTO by ELISA assay.
T1 sequence (Q9C0B1 whole entry): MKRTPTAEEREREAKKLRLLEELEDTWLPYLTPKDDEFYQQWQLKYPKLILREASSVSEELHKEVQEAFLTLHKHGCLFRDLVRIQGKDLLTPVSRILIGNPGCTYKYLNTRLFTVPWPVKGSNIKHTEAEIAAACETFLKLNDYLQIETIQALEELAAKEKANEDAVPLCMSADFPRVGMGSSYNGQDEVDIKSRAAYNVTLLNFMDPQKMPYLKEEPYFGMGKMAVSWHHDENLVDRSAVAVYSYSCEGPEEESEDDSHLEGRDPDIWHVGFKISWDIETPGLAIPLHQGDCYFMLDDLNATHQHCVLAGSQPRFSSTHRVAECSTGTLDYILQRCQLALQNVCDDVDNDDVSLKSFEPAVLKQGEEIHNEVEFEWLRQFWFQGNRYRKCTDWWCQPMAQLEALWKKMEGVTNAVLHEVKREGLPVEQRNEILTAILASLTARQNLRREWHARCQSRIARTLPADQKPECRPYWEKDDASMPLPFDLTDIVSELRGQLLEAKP
Description: The reaction mixture was then incubated with neutravidin coated 96-well plates overnight at 4° C., washed and blocked, incubated with m^6 A-specific antibody for 1 hour at room temperature, washed and blocked, and incubated with horseradish peroxidase-conjugated secondary antibody for 1 hour at room temperature. After extensive washing, the wells were treated with 3,3′,5,5′-tetramethylbenzidine (TMB) for 30 minutes at room temperature and the absorbance was measured at 390 nm. Absorbance was normalized to control wells for each concentration of inhibitor without cofactor 2-oxoglutarate to control for non-specific antibody binding, and the data were fit to a sigmoidal dose-response curve in GraphPad Prism 6.
The reaction mixture was then incubated with neutravidin coated 96-well plates (Pierce) overnight at 4° C., washed and blocked, incubated with m6A -specific primary antibody (Abcam ab151230, 1:400 dilution) for 1 hour at room temperature, washed and blocked (phosphate buffer saline with 0.1% tween-20 (PBST); blocked in 5% of non-fat milk in PBST buffer), and incubated with horseradish peroxidase-conjugated secondary antibody (Sigma-Aldrich, A6154, 1:5000 dilution) for 1 hour at room temperature. […]
For data set [3], the system named is human neural stem cells (hNSC). The data set can be described thus: Neurosphere formation assay, healthy neural stem cells. The format is cell-based. To be noted: 20 μM, 2 days.
In data set [4] the target is T1, FTO. The data set can be described thus: Steady-state (Michaelis-Menten) inhibition kinetics of FTO. The format is biochemical. To be noted: velocity and double reciprocal plots, 0-40 μM inhibitor, substrate 0-10 μM.
The test system of data set [5] is GBM-6 glioblastoma stem cells. The data set can be described thus: Neurosphere (tumorosphere) formation assay, GBM-6. The class given is cell-based, human. Conditions: GBM-6, 20 μM, 2 days.
The target of data set [6] is T1, FTO. The data set is described as follows: Fluorescence enzymatic inhibition assay (m6A7-Broccoli RNA / DFHBI-1T) against FTO. The class given is biochemical. A digest of the protocol: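 m6A7-Broccoli RNA demethylated by FTO with 300 μM 2-oxoglutarate, 300 μM Fe(II), 2 mM ascorbate in 50 mM NaHEPES pH 6, 2 h at room temperature; inhibitors 0.008-40 μM, 0.2% DMSO. DFHBI-1T fluorescence after 16 h at 4 °C; sigmoidal dose-response fits, triplicate.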

Data set [7] concerns GBM-GSC-23 glioblastoma stem cells. The data set can be described thus: Neurosphere (tumorosphere) formation assay, GBM-GSC-23. The format is cell-based, human. To be noted: GSC-23, 20 μM, 2 days.
In data set [8] the test system is TS576 glioblastoma stem cells. The data set can be described thus: Neurosphere (tumorosphere) formation assay, TS576. To be noted: 2 days. The format is cell-based, human. On the procedure: To understand the effects of our FTO inhibitors on the self-renewal properties of GSCs, tumorospheres cultured from the patient-derived GSC line TS576 were treated with 30 μM of FTO-04, FTO-10, FTO-11, or FTO-12 (FIG. 4-3AB; cell line gifted from the Furnari lab)^0.45, 46 The GSCs were cultured in sphere-forming assays for 24 hours, then treated with either inhibitors or DMSO control for 2 days. The size of the tumorospheres was calculated using ImageJ.
Early passaged GSCs were used to understand the efficacy of ALK-04 on the self-renewal capacity of GSCs by tumorsphere-formation assay as described earlier^10, 11. In brief, GSCs were seeded at 4×10^4 cells in 24 well plate and cultured for 3 days followed by treatment with ALK-04 inhibitors at 20 μM daily for 3 days. After 3 days of treatment the images of the tumorospheres were imaged with phase contrast microscope and size was measured with Image J, to understand the effects of drugs on the self-renewal of GSCs on sphere formation. This process was also repeated for healthy neural stem cells (hNSCs) treated daily with 20 μM ALK-04 for three days to assess the therapeutic ratio.

The subject of the next data set is MONOMAC6 and NB4 cells. To be noted: Huang et. al; cited from earlier work.
Data set [9] concerns the target T2, ALKBH5 (Homo sapiens (Human), UniProt Q6P6C2). Conditions: reported from Huang et. al 2019; read-out: Enzymatic IC50 ALKBH5; cited from earlier work.
Data set [10] has as its target T2, ALKBH5. The data set can be described thus: Michaelis-Menten kinetics against ALKBH5. The format is biochemical.
Data set [11] is described as follows: elogD / log D determination. To be noted: Table 700 compounds.
The subject of a further data set is B16 cells. The data set can be described thus: B16 cell proliferation assay with ALKBH5 inhibitor. The format is cell-based, mouse. Conditions: 10, 30 and 50 μM ALKBH5 inhibitor vs DMSO. On the procedure: B16 cells were plated at a density of 2000/well in 96-well plates in triplicate and incubated for 0, 2, 4, or 6 days before cell numbers were determined by manual counting or by using a CellTiter AQueous One Solution Cell Proliferation Assay kit (Promega).
Our results thus far indicate that loss f-m6A demethylase Alkbh5, in B16 melanoma cells, potentiates the efficacy of GVAX/anti-PD-1 therapy. To identify clinically relevant pharmacological inhibitors of Alkbh5, we have identified a specific inhibitor of ALKBH5, named ALK-04, by in silico screening of compounds using the X-ray crystal structure of ALKBH5 (PDB ID code 4NRO) and by performing structure-activity relationship studies on a library of synthesized compounds. […] Next, we compared tumor growth of control and inhibitor-treated mice during immunotherapy.

Data set [12] deals with T2, ALKBH5. The data set is described as follows: Fluorescence enzymatic inhibition assay (m6A7-Broccoli RNA / DFHBI-1T) against ALKBH5. The format is biochemical. To be noted: Table 700 compounds; read-out: Enzymatic IC50 ALKBH5. In a few lines:
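Inhibitors were tested at 0.008–40 μM in a final 0.2% DMSO, with 2 h incubation at room temperature. Plates were then held at 4 °C for 16 h so that DFHBI-1T could bind A7-Broccoli RNA, giving a fluorescence read-out. IC50 values come from sigmoidal dose-response fits of triplicates.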

Another data set concerns B16 melanoma tumors. The data set can be described thus: B16 melanoma mouse model, GVAX/anti-PD-1 immunotherapy with ALKBH5 inhibitor. The format is in vivo. Conditions: combined with PD-1 Ab and GVAX, vs control. On the procedure:
Animal studies and procedures were approved by the UCSD Institutional Animal Care and use Committee. Female C57BL/6J wild-type mice were obtained from The Jackson Laboratory and housed in the UCSD specific-pathogen free facility. 86.129S2-Tcratm1Mcrn/J (Tcra+) mice, which are CDC and CDB· T cell deficient, were obtained from The Jackson Laboratory and bred on-site. For the standard protocol, mice (aged 9-12 weeks at use) were injected subcutaneously (s.c.) with 5×10^5 B16 cells (NTC control, Fto-KO, or Alkbh5-KO, generated as described below) into the left flank on day 0, and then injected with 1 OE irradiated (100 GY) BIG-GM CSF cells (GVAX) into the opposite flank on days 1 and 4 to elicit an anti-tumor immune response. Mice were then injected intraperitoneally (i p.) with 10 mg/kg (−200 pgimouse) of rat monoclonal anti-mouse RD-I Ab (Bio X Cell, clone 29F. IA 12) on the days as indicated on the figures. For PD-1 Ab treatment alone, mice were implanted with B16 cells and treated with antibody on day 6, 9 and 12. For the Treg depletion experiments, mice were injected as described above and were additionally injected i.p. vittl rat anti-mouse CD25 Ab (Bio X Cell, clone 7D4) on day 11. Tumors were measured every 3 days beginning on day 7. […]

T2 sequence (Q6P6C2 whole entry): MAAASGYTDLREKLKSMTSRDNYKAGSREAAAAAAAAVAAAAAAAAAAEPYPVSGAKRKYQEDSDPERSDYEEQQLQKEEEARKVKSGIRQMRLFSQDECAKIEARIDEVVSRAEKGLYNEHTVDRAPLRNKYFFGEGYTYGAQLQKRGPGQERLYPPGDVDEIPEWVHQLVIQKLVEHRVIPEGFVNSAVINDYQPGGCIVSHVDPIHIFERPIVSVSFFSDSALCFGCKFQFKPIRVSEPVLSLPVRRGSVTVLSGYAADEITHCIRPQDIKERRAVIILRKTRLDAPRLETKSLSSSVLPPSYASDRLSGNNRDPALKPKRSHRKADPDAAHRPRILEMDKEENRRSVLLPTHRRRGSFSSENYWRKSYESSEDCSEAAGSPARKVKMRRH

Take `COc1ncc(-c2ccc3nc(N)sc3c2)cn1` [FTO-04]: the “m6A mRNA levels (dot blot)” value in [1] is “increase m6A mRNA levels significantly; also recorded: increases m6A mRNA levels”. Besides, the half-maximal inhibitory concentration (IC50) at FTO [2] was 2.79 ± 1.3 µM. Besides, the “neurosphere size / formation” value in data set [3] is “without impairing hNSC neurosphere growth; also recorded: no alteration in neurosphere size; also recorded: without significantly altering hNSC neurosphere formation”. For the same molecule, the “mechanism of inhibition of FTO” value on FTO [4] is listed as “competitive inhibitor; also recorded: competitive mechanism of inhibition”. The size of tumorospheres result in [5] was “significantly decrease the size of tumorospheres”; in data set [7], “significantly decrease the size of tumorospheres”; in data set [8] (TS576, 20 μM) it was “significantly decrease the size of tumorospheres”; in data set [8] (TS576, 30 μM inhibitor, vs vehicle control) it was “significant reduction in size of the tumorospheres”. Further, the “potency against FTO relative to MA (fold)” value at FTO [6] (IC50 compared with MA (12.5)) was “approximately 4”.

As to `Cc1noc(C)c1-c1cc(Cl)c(Nc2ccccc2C(=O)NO)c(Cl)c1` [FB23-2], the “cellular concentration relative to FB23 (fold)” value with MONOMAC6 and NB4 cells was 3-10. Further, the IC50 on ALKBH5 [9] was over 40 µM.

Consider `CC(C)(C)OC(=O)N1CSC[C@@H]1CN` [ALK-04], for which, at ALKBH5 [10], the “mechanism of inhibition of ALKBH5” value is on record as “competitive inhibitor”. In addition, in data set [11], the elogD is recorded as 0.29. Further, in the data set with B16 cells, the B16 cell proliferation result was “not significantly affected”. For the same molecule, the IC50 on ALKBH5 [12] was 0.9 ± 0.7 µM; on FTO [6] (Table 700 compounds, read-out: Enzymatic IC50 FTO), over 40 µM. Further, in the data set with B16 melanoma tumors, the “B16 tumor growth during immunotherapy” value is “significantly reduced tumor growth”.
